In patent US10405547B2, “Substituted cyclic amides as herbicides” (FMC Corporation, priority 2015, dated 2019):

Tests used:
Assay type in all cases: in vivo
[1] = system: wheat (Triticum aestivum); experiment: Test A postemergence, wheat; details: visual injury, 0 to 100 scale (0 no effect, 100 complete control), approximately 10 days
Outline: (§1)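 Visual injury on a 0 to 100 scale, about 10 days post-spray in the greenhouse. Postemergence plants measured 2–10 cm at one to two leaves; preemergence pots received a directed soil spray. Soil was a loam–sand blend.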

[2] = system: ryegrass, Italian (Lolium multiflorum); experiment: Test A postemergence, Italian ryegrass; details: visual injury, 0 to 100 scale (0 no effect, 100 complete control), approximately 10 days
Outline: as §1

[3] = system: ducksalad (Heteranthera limosa); experiment: Test B flooded paddy test, ducksalad; details: applied to paddy water, visual rating after 13 to 15 days, scale 0 (no effect) to 100 (complete control)
Outline: (§2)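 Ratings were visual and made relative to untreated controls after 13 to 15 greenhouse days.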

[4] = system: barnyardgrass (Echinochloa crus-galli); experiment: Test A preemergence, barnyardgrass; details: 0 to 100 scale (0 no effect, 100 complete control)
Outline: as §1

[5] = system: pigweed (Amaranthus retroflexus); experiment: Test A preemergence, pigweed; details: 0 to 100 scale (0 no effect, 100 complete control)
Outline: as §1

kochia (Kochia scoparia) [6] = experiment: Test A preemergence, kochia; details: 0 to 100 scale (0 no effect, 100 complete control)
Outline: as §1

[7] = system: foxtail, giant (Setaria faberii); experiment: Test A preemergence, giant foxtail; details: 0 to 100 scale (0 no effect, 100 complete control)
Outline: as §1

rice (Oryza sativa) = experiment: Test B flooded paddy test, rice; details: applied to paddy water, visual rating after 13 to 15 days, scale 0 (no effect) to 100 (complete control)
Outline: as §2

corn (Zea mays) = experiment: Test A postemergence, corn; details: visual injury, 0 to 100 scale (0 no effect, 100 complete control), approximately 10 days
Outline: as §1

[8] = system: barnyardgrass (Echinochloa crus-galli); experiment: Test B flooded paddy test, barnyardgrass; details: applied to paddy water, visual rating after 13 to 15 days, scale 0 (no effect) to 100 (complete control)
Outline: as §2

[9] = system: galium (catchweed bedstraw, Galium aparine); experiment: Test A postemergence, galium; details: visual injury, 0 to 100 scale (0 no effect, 100 complete control), approximately 10 days
Outline: as §1

[10] = system: ragweed (common ragweed, Ambrosia elatior); experiment: Test A preemergence, ragweed; details: 0 to 100 scale (0 no effect, 100 complete control)
Outline: as §1

[11] = system: foxtail, giant (Setaria faberii); experiment: Test A postemergence, giant foxtail; details: visual injury, 0 to 100 scale (0 no effect, 100 complete control), approximately 10 days
Outline: as §1

[12] = system: sedge, umbrella (small-flower umbrella sedge, Cyperus difformis); experiment: Test B flooded paddy test, umbrella sedge; details: applied to paddy water, visual rating after 13 to 15 days, scale 0 (no effect) to 100 (complete control)
Outline: as §2

[13] = system: blackgrass (Alopecurus myosuroides); experiment: Test A postemergence, blackgrass; details: visual injury, 0 to 100 scale (0 no effect, 100 complete control), approximately 10 days
Outline: as §1

kochia (Kochia scoparia) [14] = experiment: Test A postemergence, kochia; details: visual injury, 0 to 100 scale (0 no effect, 100 complete control), approximately 10 days
Outline: as §1

[15] = system: pigweed (Amaranthus retroflexus); experiment: Test A postemergence, pigweed; details: visual injury, 0 to 100 scale (0 no effect, 100 complete control), approximately 10 days
Outline: as §1

[16] = system: barnyardgrass (Echinochloa crus-galli); experiment: Test A postemergence, barnyardgrass; details: visual injury, 0 to 100 scale (0 no effect, 100 complete control), approximately 10 days
Outline: as §1

[17] = system: ragweed (common ragweed, Ambrosia elatior); experiment: Test A postemergence, ragweed; details: visual injury, 0 to 100 scale (0 no effect, 100 complete control), approximately 10 days
Outline: as §1

[18] = system: ryegrass, Italian (Lolium multiflorum); experiment: Test A preemergence, Italian ryegrass; details: 0 to 100 scale (0 no effect, 100 complete control)
Outline: as §1

| Compound | Plant response rating, Wheat ([1]; 125 g ai/ha) | Plant response rating, Wheat ([1]; 500 g ai/ha) | Plant response rating, Ryegrass, Italian ([2]; 125 g ai/ha) | Plant response rating, Ryegrass, Italian ([2]; 500 g ai/ha) | Plant response rating, Barnyardgrass ([4]; 125 g ai/ha) | Plant response rating, Barnyardgrass ([4]; 500 g ai/ha) | Plant response rating, Pigweed ([5]; 125 g ai/ha) | Plant response rating, Pigweed ([5]; 500 g ai/ha) | Plant response rating, Kochia (kochia (Kochia scoparia) [6]; 125 g ai/ha) | Plant response rating, Kochia (kochia (Kochia scoparia) [6]; 500 g ai/ha) | Plant response rating, Foxtail, Giant ([7]; 125 g ai/ha) | Plant response rating, Foxtail, Giant ([7]; 500 g ai/ha) | Plant response rating, Corn (corn (Zea mays); 125 g ai/ha) | Plant response rating, Corn (corn (Zea mays); 500 g ai/ha) | Plant response rating, Galium ([9]; 125 g ai/ha) | Plant response rating, Galium ([9]; 500 g ai/ha) | Plant response rating, Ragweed ([10]; 125 g ai/ha) | Plant response rating, Ragweed ([10]; 500 g ai/ha) | Plant response rating, Foxtail, Giant ([11]; 125 g ai/ha) | Plant response rating, Foxtail, Giant ([11]; 500 g ai/ha) | other results |
| --- | --- | --- | --- | --- | --- | --- | --- | --- | --- | --- | --- | --- | --- | --- | --- | --- | --- | --- | --- | --- | --- |
| CC1(COc2cccc(C3CNC(=O)C3C(=O)Nc3ccccc3C(F)(F)F)c2)COC1 (stereo not drawn) [Compound 15] | 0 | 0 | 0 | 0 | 0 | 60 | 0 | 0 | 0 | 0 | 10 | 40 | 0 | 0 | 0 | 0 | 0 | 0 | 10 | 20 | Plant response rating, Ducksalad (Flood) ([3]; 250 g ai/ha): 50; Plant response rating, Rice (Flood) (rice (Oryza sativa); 250 g ai/ha): 0; Plant response rating, Barnyardgrass (Flood) ([8]; 250 g ai/ha): 0; Plant response rating, Sedge, Umbrella (Flood) ([12]; 250 g ai/ha): 0; Plant response rating, Blackgrass ([13]; 125 g ai/ha): 0; Plant response rating, Blackgrass ([13]; 500 g ai/ha): 0; Plant response rating, Kochia (kochia (Kochia scoparia) [14]; 125 g ai/ha): 0; Plant response rating, Kochia (kochia (Kochia scoparia) [14]; 500 g ai/ha): 0; Plant response rating, Pigweed ([15]; 125 g ai/ha): 0; Plant response rating, Pigweed ([15]; 500 g ai/ha): 0; Plant response rating, Barnyardgrass ([16]; 125 g ai/ha): 0; Plant response rating, Barnyardgrass ([16]; 500 g ai/ha): 0; Plant response rating, Ragweed ([17]; 125 g ai/ha): 0; Plant response rating, Ragweed ([17]; 500 g ai/ha): 30; Plant response rating, Ryegrass, Italian ([18]; 125 g ai/ha): 0; Plant response rating, Ryegrass, Italian ([18]; 500 g ai/ha): 0 |
| CN1CC(c2cccc(Oc3ccc(F)cc3)c2)C(C(=O)Nc2ccccc2F)C1=O (single isomer, unassigned) [Compound 45] | 0 | 20 | 0 | 30 | 80 | 80 | 40 | 70 | 0 | 20 | 90 | 90 | 0 | 50 | 60 | 60 | 0 | 30 | 80 | 80 | Plant response rating, Ducksalad (Flood) ([3]; 250 g ai/ha): 70; Plant response rating, Rice (Flood) (rice (Oryza sativa); 250 g ai/ha): 15; Plant response rating, Barnyardgrass (Flood) ([8]; 250 g ai/ha): 40; Plant response rating, Sedge, Umbrella (Flood) ([12]; 250 g ai/ha): 0; Plant response rating, Blackgrass ([13]; 125 g ai/ha): 30; Plant response rating, Blackgrass ([13]; 500 g ai/ha): 30; Plant response rating, Kochia (kochia (Kochia scoparia) [14]; 125 g ai/ha): 40; Plant response rating, Kochia (kochia (Kochia scoparia) [14]; 500 g ai/ha): 60; Plant response rating, Pigweed ([15]; 125 g ai/ha): 30; Plant response rating, Pigweed ([15]; 500 g ai/ha): 60; Plant response rating, Barnyardgrass ([16]; 125 g ai/ha): 90; Plant response rating, Barnyardgrass ([16]; 500 g ai/ha): 90; Plant response rating, Ragweed ([17]; 125 g ai/ha): 0; Plant response rating, Ragweed ([17]; 500 g ai/ha): 0; Plant response rating, Ryegrass, Italian ([18]; 125 g ai/ha): 30; Plant response rating, Ryegrass, Italian ([18]; 500 g ai/ha): 80 |
| O=C1NCC(c2cccc(Cn3ccc(C(F)(F)F)n3)c2)C1C(=O)Nc1cccc(F)c1F (stereo not drawn) [Compound 25, N-(2,3-difluorophenyl)-2-oxo-4-[3-[[3-(trifluoromethyl)-1H-pyrazol-1-yl]methyl]phenyl]-3-pyrrolidinecarboxamide] | 0 | 0 | 0 | 0 | 20 | 40 | 0 | 0 | 0 | 20 | 50 | 80 | 0 | 0 | 0 | 0 | 0 | 0 | 20 | 60 | Plant response rating, Ducksalad (Flood) ([3]; 500 g ai/ha): 60; Plant response rating, Rice (Flood) (rice (Oryza sativa); 500 g ai/ha): 15; Plant response rating, Barnyardgrass (Flood) ([8]; 500 g ai/ha): 0; Plant response rating, Sedge, Umbrella (Flood) ([12]; 500 g ai/ha): 0; Plant response rating, Blackgrass ([13]; 125 g ai/ha): 0; Plant response rating, Blackgrass ([13]; 500 g ai/ha): 0; Plant response rating, Kochia (kochia (Kochia scoparia) [14]; 125 g ai/ha): 0; Plant response rating, Kochia (kochia (Kochia scoparia) [14]; 500 g ai/ha): 0; Plant response rating, Pigweed ([15]; 125 g ai/ha): 0; Plant response rating, Pigweed ([15]; 500 g ai/ha): 0; Plant response rating, Barnyardgrass ([16]; 125 g ai/ha): 20; Plant response rating, Barnyardgrass ([16]; 500 g ai/ha): 60; Plant response rating, Ragweed ([17]; 125 g ai/ha): 0; Plant response rating, Ragweed ([17]; 500 g ai/ha): 0; Plant response rating, Ryegrass, Italian ([18]; 125 g ai/ha): 0; Plant response rating, Ryegrass, Italian ([18]; 500 g ai/ha): 0 |
| O=C1NCC(c2cccc(Oc3ncc(F)cn3)c2)C1C(=O)Nc1cccc(F)c1F (single isomer, unassigned) [Compound 37] | 20 | 70 | 0 | 60 | 90 | 90 | 60 | 80 | 0 | 70 | 90 | 100 | 70 | 90 | 50 | 70 | 0 | 80 | 70 | 90 | Plant response rating, Ducksalad (Flood) ([3]; 250 g ai/ha): 100; Plant response rating, Rice (Flood) (rice (Oryza sativa); 250 g ai/ha): 20; Plant response rating, Barnyardgrass (Flood) ([8]; 250 g ai/ha): 30; Plant response rating, Sedge, Umbrella (Flood) ([12]; 250 g ai/ha): 0; Plant response rating, Blackgrass ([13]; 125 g ai/ha): 40; Plant response rating, Blackgrass ([13]; 500 g ai/ha): 70; Plant response rating, Kochia (kochia (Kochia scoparia) [14]; 125 g ai/ha): 0; Plant response rating, Kochia (kochia (Kochia scoparia) [14]; 500 g ai/ha): 50; Plant response rating, Pigweed ([15]; 125 g ai/ha): 40; Plant response rating, Pigweed ([15]; 500 g ai/ha): 70; Plant response rating, Barnyardgrass ([16]; 125 g ai/ha): 90; Plant response rating, Barnyardgrass ([16]; 500 g ai/ha): 100; Plant response rating, Ragweed ([17]; 125 g ai/ha): 20; Plant response rating, Ragweed ([17]; 500 g ai/ha): 70; Plant response rating, Ryegrass, Italian ([18]; 125 g ai/ha): 20; Plant response rating, Ryegrass, Italian ([18]; 500 g ai/ha): 50 |
